Results from ChEMBL document CHEMBL4808236, “New phorbol ester derivatives as potent anti-HIV agents” (Bioorg Med Chem Lett, 2021).

Tests used:
[1] = Selectivity index, ratio of CC75 for cytotoxicity against human MT4 cells to IC50 for antiviral activity against HIV-1 NL4-3 infected in human MT4 cells; format: toxicity, cell-based; conditions: read-out: Selectivity Index
A549 = assay: Antiproliferative activity against human A549 cells assessed as reduction in cell viability measured after 72 hrs by SRB assay; conditions: A549, 72 h
[2] = Antiproliferative activity against human KB-VIN cells assessed as reduction in cell viability after 72 hrs by SRB assay; format: functional, cell-based; conditions: KBVIN
KB = assay: Antiproliferative activity against human KB cells assessed as reduction in cell viability measured after 72 hrs by SRB assay; format: functional, cell-based
MCF7 = assay: Antiproliferative activity against human MCF7 cells assessed as reduction in cell viability measured after 72 hrs by SRB assay; format: functional, cell-based; conditions: MCF7, 72 h
[3] = tested on: Human immunodeficiency virus 1; assay: Antiviral activity against HIV-1 NL4-3 infected in human MT4 cells assessed as reduction in p24 production treated at 48 hrs post-infection and measured on day 4 post-viral infection by ELISA; format: functional, organism-based; conditions: Human immunodeficiency virus 1, NL4-3, MT4
MT4 = assay: Cytotoxicity against human MT4 cells assessed as reduction in cell viability by CellTiter-Glo luminescence assay; format: cell-based
MDA-MB-231 = assay: Antiproliferative activity against human MDA-MB-231 cells assessed as reduction in cell viability measured after 72 hrs by SRB assay; format: functional, cell-based; conditions: MDA-MB-231, 72 h
MRC5 = assay: Cytotoxicity against human MRC5 cells assessed as inhibition of cell viability; format: cell-based

SMILES	IC50 (A549)	IC50 (KB)	IC50 (MCF7)	IC50 [3]	IC50 (MDA-MB-231)	selectivity ratio [1]	IC50 [2]	CC75 (MT4)	IC50 (MRC5)
CC/C=C/C/C=C/C/C=C/C/C=C/C/C=C/CCCC(=O)O[C@@H]1[C@@H](C)[C@@]2(O)[C@@H](C=C(CO)C[C@]3(O)C(=O)C(C)=C[C@@H]23)[C@@H]2C(C)(C)[C@]12OC(=O)CCC	> 10 µM	> 10 µM	> 10 µM	0.00227 µM	> 10 µM	> 1500	> 10 µM	> 5 µM	
CCCC(=O)O[C@]12C([C@@H]3C=C(CO)C[C@]4(O)C(=O)C(C)=C[C@H]4[C@@]3(O)[C@H](C)[C@H]1OC(=O)/C=C/c1ccccc1)C2(C)C (single isomer, unassigned)	> 10 µM	> 10 µM	> 10 µM	0.0009 µM	> 10 µM	> 5000	> 10 µM	> 5 µM	8.71 µM
CC(=O)O[C@@]12[C@H](OC(=O)/C=C/c3ccccc3)[C@@H](C)[C@@]3(O)[C@@H](C=C(CO)C[C@]4(O)C(=O)C(C)=C[C@@H]34)[C@@H]1C2(C)C	> 10 µM	> 10 µM	> 10 µM	0.0031 µM	> 10 µM	> 1500	> 10 µM	> 5 µM	
CCCC(=O)O[C@]12C([C@@H]3C=C(CO)C[C@]4(O)C(=O)C(C)=C[C@H]4[C@@]3(O)[C@H](C)[C@H]1OC(=O)/C=C/c1ccc(O)c(OC)c1)C2(C)C (single isomer, unassigned)	> 10 µM	> 10 µM	> 10 µM	0.0872 µM	> 10 µM	> 50	> 10 µM	> 5 µM	
CC/C=C/C/C=C/C/C=C/C/C=C/C/C=C/CCCC(=O)O[C@@H]1[C@@H](C)[C@@]2(O)[C@@H](C=C(CO)C[C@]3(O)C(=O)C(C)=C[C@@H]23)[C@@H]2C(C)(C)[C@]12OC(C)=O	> 10 µM	> 10 µM	> 10 µM	0.00046 µM	> 10 µM	> 10000	> 10 µM	> 5 µM	
CC/C=C/C/C=C/C/C=C/C/C=C/C/C=C/CCCC(=O)OCC1=C[C@H]2[C@@H]3C(C)(C)[C@]3(OC(=O)CCC/C=C/C/C=C/C/C=C/C/C=C/C/C=C/CC)[C@H](O)[C@@H](C)[C@]2(O)[C@@H]2C=C(C)C(=O)[C@@]2(O)C1	> 10 µM	> 10 µM	> 10 µM	2.23 µM	> 10 µM		> 10 µM	> 5 µM	
CC1=C[C@H]2[C@@]3(O)[C@H](C)[C@@H](O)[C@]4(OC(=O)CCc5ccccc5)C([C@@H]3C=C(CO)C[C@]2(O)C1=O)C4(C)C (single isomer, unassigned)	> 10 µM	> 10 µM	> 10 µM	5.46 µM	> 10 µM		> 10 µM	> 10 µM	
CC/C=C/C/C=C/C/C=C/C/C=C/C/C=C/CCCC(=O)O[C@@H]1[C@@H](C)[C@@]2(O)[C@@H](C=C(CO)C[C@]3(O)C(=O)C(C)=C[C@@H]23)[C@@H]2C(C)(C)[C@]12OC(=O)CCC/C=C/C/C=C/C/C=C/C/C=C/C/C=C/CC	> 10 µM	> 10 µM	> 10 µM	0.11 µM	> 10 µM		> 10 µM	> 5 µM	
CC1=C[C@H]2[C@@]3(O)[C@H](C)[C@@H](OC(=O)CCc4ccccc4)[C@]4(OC(=O)CCc5ccccc5)[C@H]([C@@H]3C=C(CO)C[C@]2(O)C1=O)C4(C)C	> 10 µM	8.31 µM	10.5 µM	0.00049 µM	> 10 µM	> 10000	> 10 µM	> 5 µM	11.4 µM
C/C=C/C(=O)O[C@]12C([C@@H]3C=C(CO)C[C@]4(O)C(=O)C(C)=C[C@H]4[C@@]3(O)[C@H](C)[C@H]1O)C2(C)C (single isomer, unassigned)	> 10 µM	> 10 µM	> 10 µM	> 10 µM	> 10 µM		> 10 µM	> 5 µM	

Further lines, with some results ahead:

IC50 (A549)	IC50 (KB)	IC50 (MCF7)	IC50 [3]	IC50 (MDA-MB-231)	SMILES	selectivity ratio [1]	IC50 [2]	CC75 (MT4)	IC50 (MRC5)
0.08 µM	> 40 µM	> 10 µM	0.0135 µM	0.21 µM	CCCCCCCCCCCCCCCCCCCC(=O)O[C@]12C([C@@H]3C=C(CO)C[C@]4(O)C(=O)C(C)=C[C@H]4[C@@]3(O)[C@H](C)[C@H]1O)C2(C)C (single isomer, unassigned)	> 350	> 40 µM	> 5 µM	
> 10 µM	> 10 µM	> 10 µM	> 10 µM	> 10 µM	CCCCCCCCCCCCCCCCCCCC(=O)O[C@@H]1[C@@H](C)[C@@]2(O)[C@@H](C=C(CO)C[C@]3(O)C(=O)C(C)=C[C@@H]23)[C@@H]2C(C)(C)[C@]12OC(=O)CCCCCCCCCCCCCCCCCCC		> 10 µM	> 5 µM	
0.09 µM	> 10 µM	> 10 µM	0.0623 µM	1.99 µM	CC/C=C/C/C=C/C/C=C/C/C=C/C/C=C/CCCC(=O)O[C@]12C([C@@H]3C=C(CO)C[C@]4(O)C(=O)C(C)=C[C@H]4[C@@]3(O)[C@H](C)[C@H]1O)C2(C)C (single isomer, unassigned)	> 50	> 10 µM	> 5 µM	
> 10 µM	> 10 µM	> 10 µM	> 10 µM	> 10 µM	C/C=C(/C)C(=O)O[C@]12C([C@@H]3C=C(CO)C[C@]4(O)C(=O)C(C)=C[C@H]4[C@@]3(O)[C@H](C)[C@H]1O)C2(C)C (single isomer, unassigned)		> 10 µM	> 5 µM	
6.22 µM	> 10 µM	> 10 µM	> 10 µM	6.7 µM	C/C=C/C(=O)OCC1=C[C@H]2C3C(C)(C)[C@]3(OC(=O)/C=C/C)[C@H](O)[C@@H](C)[C@]2(O)[C@@H]2C=C(C)C(=O)[C@@]2(O)C1 (single isomer, unassigned)		> 10 µM	> 5 µM	
4.7 µM	6.45 µM	6.85 µM	0.00921 µM	8.29 µM	CC1=C[C@H]2[C@@]3(O)[C@H](C)[C@@H](OC(=O)/C=C/c4ccccc4)[C@]4(OC(=O)/C=C/c5ccccc5)[C@H]([C@@H]3C=C(CO)C[C@]2(O)C1=O)C4(C)C	> 500	6.82 µM	> 5 µM	36.2 µM
> 10 µM	> 10 µM	> 10 µM	> 10 µM	> 10 µM	COc1cc(/C=C/C(=O)O[C@]23C([C@@H]4C=C(CO)C[C@]5(O)C(=O)C(C)=C[C@H]5[C@@]4(O)[C@H](C)[C@H]2O)C3(C)C)ccc1C(C)=O (single isomer, unassigned)		> 10 µM	> 5 µM	
> 10 µM	> 10 µM	> 10 µM	0.00075 µM	> 10 µM	CC(=O)O[C@@]12[C@H](OC(=O)/C=C/c3ccc(Cl)cc3)[C@@H](C)[C@@]3(O)[C@@H](C=C(CO)C[C@]4(O)C(=O)C(C)=C[C@@H]34)[C@@H]1C2(C)C	> 5000	> 10 µM	> 5 µM	7.13 µM
> 10 µM	> 10 µM	> 10 µM	0.408 µM	> 10 µM	C/C=C/C(=O)O[C@@H]1[C@@H](C)[C@@]2(O)[C@@H](C=C(CO)C[C@]3(O)C(=O)C(C)=C[C@@H]23)[C@@H]2C(C)(C)[C@]12OC(=O)/C=C/C		> 10 µM	> 10 µM	
